One data set has as its target T1, CYP 3A4 (Homo sapiens, UniProt P08684).
T1 construct: from tissue; host or cells: human liver microsomes
In words: CYP inhibition in human liver microsomes, 3A4. Type of data set: in vitro ADME. As to conditions: pH 7.4, @ 10 μM concn. On the procedure:
(§1) CYP Inhibition Studies: CYP inhibition studies were performed with test compounds, at two concentrations ([…] and 10 μM), using human liver microsomes (Yao, M., Zhu, M., Sinz, M. W., Zhang, H., Humphreys, W. F., Rodrigues, A. D and Dai, R., Journal of Pharmaceutical and Biomedical Analysis, 2007, 44, 211-223; Walsky, R. L and Obach, R. S., Drug Metab. Dispos., 2004, 32, 647-660). Human liver microsomes were mixed with 100 mM phosphate buffer (pH 7.4) and probe substrate and warmed to […] in microcentrifuge tubes. Aliquots of this mixture (499 μL) were transferred to each pre-labeled microcentrifuge tubes, followed by addition of the 1 μL of inhibitors (test compound/CYP-specific positive control inhibitor) or control solvent (DMSO). Aliquots of this mixture (90 μL) were transferred to each pre-labeled microcentrifuge tubes in duplicate. Final solvent concentrations were 0.2% (v/v) or less. Incubations were commenced with the addition of 10 μL NADPH stock (assay concentration, 1 mM) to a final incubation volume of 100 μL and incubated in shaking water bath (at 37° C. and 100 rpm), for the period defined in Tables 1. Incubations were terminated by addition of 400 μL of termination solvent (CH3CN) containing internal standard. The terminated samples were vortex-mixed, centrifuged at 10000 rpm for 5 min and supernatant transferred into HPLC vials for LC-MS/MS analysis to monitor metabolites produced by marker CYP reactions. […] Animals
On the technique in general: Liver microsomes are a subcellular fraction often used to study metabolism.

The next data set deals with T2, CYP 2C8 (Homo sapiens, UniProt P10632).
T2 construct: from tissue; host or cells: human liver microsomes
T2 sequence (P10632 1-490): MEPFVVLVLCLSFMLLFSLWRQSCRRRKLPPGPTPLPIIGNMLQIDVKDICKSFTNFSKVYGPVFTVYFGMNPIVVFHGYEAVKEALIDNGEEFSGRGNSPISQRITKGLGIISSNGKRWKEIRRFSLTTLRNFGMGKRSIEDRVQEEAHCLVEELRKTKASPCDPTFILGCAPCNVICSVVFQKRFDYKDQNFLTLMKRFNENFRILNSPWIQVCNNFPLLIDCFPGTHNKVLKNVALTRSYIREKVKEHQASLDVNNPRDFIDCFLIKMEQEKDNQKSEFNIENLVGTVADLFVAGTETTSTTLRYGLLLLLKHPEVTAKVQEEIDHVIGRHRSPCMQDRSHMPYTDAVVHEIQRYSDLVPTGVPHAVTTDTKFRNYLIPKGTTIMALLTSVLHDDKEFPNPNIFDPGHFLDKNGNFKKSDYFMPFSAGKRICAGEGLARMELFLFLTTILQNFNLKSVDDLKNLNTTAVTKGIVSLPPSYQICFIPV
The experiment in a line: CYP inhibition in human liver microsomes, 2C8. As to conditions: pH 7.4, @ 10 μM concn. The format is in vitro ADME. The method, then:
as §1

The target of a further data set is T3, CYP 2D6 (Homo sapiens, UniProt P10635).
T3 construct: from tissue; host or cells: human liver microsomes
The experiment in a line: CYP inhibition in human liver microsomes, 2D6. Type of data set: in vitro ADME. The settings on record: pH 7.4, @ 10 μM concn. The method, then: as §1

Another data set has as its target T4, CYP 2C19 (Homo sapiens, UniProt P33261).
T4 construct: from tissue; host or cells: human liver microsomes
The experiment in a line: CYP inhibition in human liver microsomes, 2C19. The format is in vitro ADME. As to conditions: pH 7.4, @ 10 μM concn. On the procedure: as §1

In data set [1] the target is T5, recombinant purified human BTK (Homo sapiens, UniProt Q06187).
T5 construct: purchased SignalChem, USA
In words: In vitro BTK kinase assay on ADP Glo platform. The format is biochemical. As to conditions: 2 hr room temperature, read-out: In-vitro BTK inhibitory activity: IC50. On the procedure: Testing of Compounds of the Invention Biological Studies: In vitro BTK Inhibitory Activity Assay:
In vitro BTK inhibitory activity of test compounds were screened using BTK kinase assay on ADP Glo platform (Li, H., Totoritis, R. D., Lor, L. A., Schwartz, B., Caprioli, P., Jurewicz, A. J and Zhang, G., Assay Drug Dev. Technol., 2009, 7(6), 598-605). Briefly, fixed amount of recombinant purified human BTK (3 ng/reaction from SignalChem, USA) were incubated with increasing concentration of test compounds, in 1× kinase reaction buffer (40 mM Tris-Cl, pH7.5, 20 mM MgCl2, 2 mM MnCl2, 0.1 mg/ml BSA and 50 μM DTT). Enzymatic reaction was initiated by adding a substrate cocktail containing 50 µM of ATP (final concentration) and […] of polyGln4Tyr1 (Signal Chem) in total 25 μl of reaction, in round bottom white 96 well plate. The reaction mixture was incubated at room temperature for 2 hr. After 2 hr of incubation, 10 μl of the reaction mix was mixed with […] of ADP Glo reagent, in another round bottom white 96 well plate and incubated at room temperature for 40 min. This was followed by addition of kinase detection reagent (20 μl per reaction) and incubation at room temperature for 30 min. Finally, plate was read for luminescence at an integration time of 500 millisecond per well. Data were plotted taking Enzyme with no inhibitor set as the 100% kinase activity and for dose response curve, % Kinase activity was plotted against conc on Log scale and IC50 was determined by non linear curve fitting method using GraphPad Prism software 6. The in vitro BTK inhibitory activity (IC50) for representative compounds are listed in […]
A general note: ADP-Glo first removes unused ATP, then detects ADP through luciferase.

The next data set has as its target T6, CYP 2C9 (Homo sapiens, UniProt P11712).
T6 construct: from tissue; host or cells: human liver microsomes
The experiment in a line: CYP inhibition in human liver microsomes, 2C9. The format is in vitro ADME. The settings on record: pH 7.4, @ 10 μM concn. The method, then:
as §1

For another data set, the target named is T7, CYP 1A2 (Homo sapiens, UniProt P05177).
T7 construct: from tissue; host or cells: human liver microsomes
T7 sequence (P05177 1-516): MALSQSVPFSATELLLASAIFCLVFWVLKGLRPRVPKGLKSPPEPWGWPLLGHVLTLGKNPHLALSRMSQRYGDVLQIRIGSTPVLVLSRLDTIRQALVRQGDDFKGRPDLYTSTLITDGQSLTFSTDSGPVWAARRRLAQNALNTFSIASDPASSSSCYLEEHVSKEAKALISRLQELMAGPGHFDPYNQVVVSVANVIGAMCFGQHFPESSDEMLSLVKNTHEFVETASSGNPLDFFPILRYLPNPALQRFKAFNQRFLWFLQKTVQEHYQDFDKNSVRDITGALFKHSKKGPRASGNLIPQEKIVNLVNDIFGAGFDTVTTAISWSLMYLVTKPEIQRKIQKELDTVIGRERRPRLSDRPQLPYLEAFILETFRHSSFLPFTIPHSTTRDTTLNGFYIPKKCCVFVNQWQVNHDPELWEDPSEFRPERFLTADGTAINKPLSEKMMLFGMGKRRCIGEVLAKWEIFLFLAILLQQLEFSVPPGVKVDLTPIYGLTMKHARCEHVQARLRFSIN
In words: CYP inhibition in human liver microsomes, 1A2. As to conditions: pH 7.4, @ 10 μM concn. Type of data set: in vitro ADME. The method, then:
as §1

One may read the inhibition as how much of the control response was suppressed. As usually defined, the IC50 is the midpoint of a concentration-inhibition curve.

T4 sequence (P33261 whole entry): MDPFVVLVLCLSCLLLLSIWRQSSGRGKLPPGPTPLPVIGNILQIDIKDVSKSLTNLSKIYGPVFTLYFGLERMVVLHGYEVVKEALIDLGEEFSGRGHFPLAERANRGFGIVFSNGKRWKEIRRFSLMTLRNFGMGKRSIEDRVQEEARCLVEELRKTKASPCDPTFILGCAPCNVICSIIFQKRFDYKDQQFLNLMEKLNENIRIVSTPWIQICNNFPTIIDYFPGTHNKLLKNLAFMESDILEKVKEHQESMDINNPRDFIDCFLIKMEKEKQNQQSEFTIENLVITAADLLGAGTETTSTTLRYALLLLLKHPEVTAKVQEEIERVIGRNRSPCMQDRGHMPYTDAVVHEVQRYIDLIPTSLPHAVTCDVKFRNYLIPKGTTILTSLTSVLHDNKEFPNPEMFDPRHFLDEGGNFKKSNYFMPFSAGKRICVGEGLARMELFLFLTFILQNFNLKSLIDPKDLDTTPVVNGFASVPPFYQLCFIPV
T6 sequence (P11712 whole entry): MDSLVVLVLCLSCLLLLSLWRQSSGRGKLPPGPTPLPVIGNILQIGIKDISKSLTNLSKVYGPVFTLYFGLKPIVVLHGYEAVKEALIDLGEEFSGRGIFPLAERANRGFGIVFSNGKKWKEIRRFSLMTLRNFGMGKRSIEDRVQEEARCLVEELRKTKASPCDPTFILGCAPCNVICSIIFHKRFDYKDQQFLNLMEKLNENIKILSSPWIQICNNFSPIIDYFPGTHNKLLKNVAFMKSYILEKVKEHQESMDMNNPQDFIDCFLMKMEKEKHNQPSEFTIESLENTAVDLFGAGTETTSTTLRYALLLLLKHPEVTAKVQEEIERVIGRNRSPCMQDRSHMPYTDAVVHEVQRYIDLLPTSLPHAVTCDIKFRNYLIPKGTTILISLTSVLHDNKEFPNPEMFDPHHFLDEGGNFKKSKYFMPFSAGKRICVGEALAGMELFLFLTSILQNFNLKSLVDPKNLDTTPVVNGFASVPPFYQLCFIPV
T1 sequence (P08684 whole entry): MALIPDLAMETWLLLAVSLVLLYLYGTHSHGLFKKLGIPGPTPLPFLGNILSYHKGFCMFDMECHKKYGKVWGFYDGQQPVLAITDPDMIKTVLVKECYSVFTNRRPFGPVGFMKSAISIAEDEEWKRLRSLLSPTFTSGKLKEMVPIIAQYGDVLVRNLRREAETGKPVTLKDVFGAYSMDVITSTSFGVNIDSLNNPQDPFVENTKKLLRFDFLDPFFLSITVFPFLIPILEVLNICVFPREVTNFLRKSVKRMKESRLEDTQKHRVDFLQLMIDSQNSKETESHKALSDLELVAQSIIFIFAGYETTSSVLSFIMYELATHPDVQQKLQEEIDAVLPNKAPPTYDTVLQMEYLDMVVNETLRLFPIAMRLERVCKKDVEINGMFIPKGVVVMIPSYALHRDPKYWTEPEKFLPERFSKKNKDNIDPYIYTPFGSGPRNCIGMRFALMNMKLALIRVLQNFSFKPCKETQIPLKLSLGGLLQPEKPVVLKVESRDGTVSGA
T5 sequence (Q06187 whole entry): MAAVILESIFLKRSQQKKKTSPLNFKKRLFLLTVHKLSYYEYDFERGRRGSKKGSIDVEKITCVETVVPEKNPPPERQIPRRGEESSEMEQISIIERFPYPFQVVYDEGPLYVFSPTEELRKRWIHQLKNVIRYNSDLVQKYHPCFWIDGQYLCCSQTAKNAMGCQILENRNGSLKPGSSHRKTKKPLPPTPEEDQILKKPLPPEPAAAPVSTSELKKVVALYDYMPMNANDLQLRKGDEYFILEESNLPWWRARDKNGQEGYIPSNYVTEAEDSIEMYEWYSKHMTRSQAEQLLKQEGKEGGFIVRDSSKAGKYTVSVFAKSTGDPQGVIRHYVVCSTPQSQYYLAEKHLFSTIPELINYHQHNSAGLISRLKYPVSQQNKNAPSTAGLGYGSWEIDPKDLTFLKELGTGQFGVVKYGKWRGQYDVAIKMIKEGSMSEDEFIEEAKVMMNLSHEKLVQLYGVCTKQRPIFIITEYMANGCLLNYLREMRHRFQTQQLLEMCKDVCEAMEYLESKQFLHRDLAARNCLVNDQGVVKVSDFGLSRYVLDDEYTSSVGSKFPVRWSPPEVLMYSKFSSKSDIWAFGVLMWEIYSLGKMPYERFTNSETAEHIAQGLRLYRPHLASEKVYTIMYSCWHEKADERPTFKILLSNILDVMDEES
T3 sequence (P10635 whole entry): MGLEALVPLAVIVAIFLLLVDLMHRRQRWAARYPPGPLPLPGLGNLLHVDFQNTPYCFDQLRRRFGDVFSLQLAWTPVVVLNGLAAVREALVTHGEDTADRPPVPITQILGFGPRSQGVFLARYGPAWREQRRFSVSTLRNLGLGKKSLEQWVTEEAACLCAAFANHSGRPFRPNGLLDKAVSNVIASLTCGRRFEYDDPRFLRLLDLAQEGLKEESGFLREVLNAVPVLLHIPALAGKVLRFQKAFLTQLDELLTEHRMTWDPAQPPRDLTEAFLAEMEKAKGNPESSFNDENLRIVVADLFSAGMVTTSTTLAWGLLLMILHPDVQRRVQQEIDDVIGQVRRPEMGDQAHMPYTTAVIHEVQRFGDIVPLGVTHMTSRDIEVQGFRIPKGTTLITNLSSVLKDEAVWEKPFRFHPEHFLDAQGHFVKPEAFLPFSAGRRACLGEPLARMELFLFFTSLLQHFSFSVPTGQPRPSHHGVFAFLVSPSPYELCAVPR

Consider `C=CC(=O)N1CC2CC(n3nc(-c4ccc(C(=O)Nc5cc(C(F)(F)F)ccn5)cc4)c4c(N)ncnc43)CC2C1` (stereo not drawn) [Compound 40, 4-(1-(2-acryloyloctahydrocyclopenta[c]pyrrol-5-yl)-4-amino-1H-pyrazolo[3,4-d]pyrimidin-3-yl)-N-(4-(trifluoromethyl)pyridin-2-yl)benzamide], for which the inhibition at 10 μM was less than 50% at CYP 3A4; less than 50% against CYP 2C8; less than 50% at CYP 2D6; less than 50% on CYP 2C19; greater than 50% against CYP 2C9; greater than 50% on CYP 1A2. In data set [1], the IC50 worked out at 6 nM.

Turning to `C=CC(=O)N1CC2CC(n3nc(-c4ccc5nc(NC(C)=O)sc5c4)c4c(N)ncnc43)CC2C1` (stereo not drawn) [Compound 9, N-(6-(1-(2-acryloyloctahydrocyclopenta[c]pyrrol-5-yl)-4-amino-1H-pyrazolo [3,4-d]pyrimidin-3-yl)benzo[d]thiazol-2-yl)acetamide], the inhibition at 10 μM was greater than 50% against CYP 3A4; greater than 50% against CYP 2C8; less than 50% against CYP 2D6; less than 50% on CYP 2C19; greater than 50% against CYP 2C9; less than 50% against CYP 1A2. The IC50 in data set [1] was 28 nM.

Take `C=CC(=O)N1CC2CC(n3nc(-c4ccc5ncsc5c4)c4c(N)ncnc43)CC2C1` (stereo not drawn) [Compound 2, 1-(5-(4-amino-3-(benzo[d]thiazol-6-yl)-1H-pyrazolo[3,4-d]pyrimidin-1-yl)hexahydrocyclopenta[c]pyrrol-2(1H)-yl)prop-2-en-1-one]: the inhibition at 10 μM on CYP 3A4, at CYP 2C8, at CYP 2D6, against CYP 2C19, against CYP 2C9 and at CYP 1A2 was less than 50% throughout. Also, in data set [1], the IC50 turned out to be 1.1 nM.

In the case of `C=CC(=O)N1CC2CC(n3nc(-c4ccc5nc(C)sc5c4)c4c(N)ncnc43)CC2C1` (stereo not drawn) [Compound 5, 1-(5-(4-amino-3-(2-methylbenzo[d]thiazol-6-yl)-1H-pyrazolo[3,4-d]pyrimidin-1-yl)hexahydrocyclopenta[c]pyrrol-2(1H)-yl)prop-2-en-1-one], the inhibition at 10 μM is greater than 50% against CYP 3A4; less than 50% against CYP 2C8; less than 50% against CYP 2D6; less than 50% against CYP 2C19; less than 50% against CYP 2C9; less than 50% against CYP 1A2. In addition, the IC50 in data set [1] is 8 nM.

Consider `C=CC(=O)N1CC2CC(n3nc(-c4ccc(NC(=O)c5cnccn5)cc4)c4c(N)ncnc43)CC2C1` (stereo not drawn) [Compound 35, N-(4-(1-(2-acryloyloctahydrocyclopenta[c]pyrrol-5-yl)-4-amino-1H-pyrazolo[3,4-d]pyrimidin-3-yl)phenyl)pyrazine-2-carb oxamide], for which the inhibition at 10 μM against CYP 3A4, at CYP 2C8, at CYP 2D6, against CYP 2C19, against CYP 2C9 and against CYP 1A2 was less than 50% in each case. In addition, the concentration for half-maximal inhibition (IC50) in data set [1] came to 1.2 nM.

As for `C#CC(=O)N1CC2CC(n3nc(-c4ccc(Oc5ccccc5)cc4)c4c(N)ncnc43)CC2C1` (stereo not drawn) [Compound 11, 1-(5-(4-amino-3-(4-phenoxyphenyl)-1H-pyrazolo[3,4-d]pyrimidin-1-yl)hexahydrocyclopenta[c]pyrrol-2(1H)-yl)prop-2-yn-1-one], the inhibition at 10 μM at CYP 3A4, against CYP 2C8, on CYP 2D6, on CYP 2C19, against CYP 2C9 and against CYP 1A2 was less than 50% throughout. The IC50 in data set [1] was determined as 13 nM.

On to `C=CC(=O)N1CC2CC(n3nc(-c4ccc(-c5nnc(-c6ccccn6)s5)cc4)c4c(N)ncnc43)CC2C1` (stereo not drawn) [Compound 39, 1-(5-(4-amino-3-(4-(5-(pyridin-2-yl)-1,3,4-thiadiazol-2-yl)phenyl)-1H-pyrazolo [3,4-d]pyrimidin-1-yl)hexahydrocyclopenta[c]pyrrol-2(1H)-yl)prop-2-en-1-one], for which the inhibition at 10 μM against CYP 3A4, against CYP 2C8, on CYP 2D6, against CYP 2C19, on CYP 2C9 and against CYP 1A2 was less than 50% each time. In data set [1], the IC50 is 1.4 nM.

Regarding `C=CC(=O)N1CC2CC(n3nc(-c4ccc5c(c4)CCS5)c4c(N)ncnc43)CC2C1` (stereo not drawn) [Compound 7, 1-(5-(4-amino-3-(2,3-dihydrobenzo[b]thiophen-5-yl)-1H-pyrazolo [3,4-d]pyrimidin-1-yl)hexahydrocyclopenta[c]pyrrol-2(1H)-yl)prop-2-en-1-one], the inhibition at 10 μM is greater than 50% on CYP 3A4; less than 50% against CYP 2C8; less than 50% on CYP 2D6; less than 50% against CYP 2C19; greater than 50% against CYP 2C9; less than 50% on CYP 1A2. Moreover, in data set [1], the IC50 turned out to be 6 nM.

Turning to `CN(C)C/C=C/C(=O)N1CC2CC(n3nc(-c4ccc(Oc5ccccc5)cc4)c4c(N)ncnc43)CC2C1` (stereo not drawn) [Compound 48, (E)-1-(5-(4-amino-3-(4-phenoxyphenyl)-1H-pyrazolo[3,4-d]pyrimidin-1-yl)hexahydrocyclopenta[c]pyrrol-2(1H)-yl)-4-(dimethylamino)but-2-en-1-one], the concentration for half-maximal inhibition (IC50) in data set [1] was determined as 50 nM.
